Experimental findings from patent US9392789B2, “Compositions of dibromomalonamide and their use as biocides” (Dow Global Technologies LLC, priority 2009, dated 2016) are described below.

The assay relates to mixture of Pseudomonas aeruginosa, Klebsiella pneumoniae, Staphylococcus aureus, and Bacillus subtilis. Put plainly: Growth inhibition assay (microtiter plate-based synergy assay). As to conditions: 24 h; for I90 value: single active, concentration for ~90% inhibition of growth. It is filed as cell-based. From the text: Growth Inhibition Assay. […] Regardless of the mechanism of action, the impact of a biocide (or combination of biocides) can be measured over time on the basis of an increase in the size of the community.
The assay measures the efficacy of one or more biocides at preventing growth of a consortium of bacteria in a dilute mineral salts medium. The medium contains (in mg/l) the following components: FeCl3.6H2O (1); CaCl2.2H2O (10); MgSO4.7H2O (22.5); (NH4)2SO4 (40); KH2PO4 (10); K2HPO4 (25.5); Yeast Extract (10); and glucose (100). After all components are added to deionized water, the pH of the medium is adjusted to 7.5. Following filter sterilization, aliquots are dispensed in 100 ul quantities to sterile microtiter plate wells. Dilutions of 2,2-dibromomalonamide (“DBMAL”) and/or “Biocide B” are then added to the microtiter plate. After preparing the combinations of actives as illustrated below, each well is inoculated with 100 μl of a cell suspension containing ca. 1×10^6 cells per milliliter of a mixture of Pseudomonas aeruginosa, Klebsiella pneumoniae, Staphylococcus aureus, and Bacillus subtilis. The final total volume of medium in each well is 300 μl. Once prepared as described herein, the concentration of each active ranges from 25 ppm to 0.195 ppm as illustrated in Table 1. The resulting matrix allows testing of eight concentrations of each active and 64 combinations of actives in the ratios (of actives).
Controls (not shown) contain the medium with no biocide added. After preparing the combinations of actives as illustrated above, each well is inoculated with 100 μl of a cell suspension containing ca. 1×10^6 cells per milliliter of a mixture of Pseudomonas aeruginosa, Klebsiella pneumoniae, Staphylococcus aureus, and Bacillus subtilis. The final total volume of medium in each well is 300 μl.
Immediately after the microtiter plates are prepared, the optical density (OD) readings for each well is measured at 580 nm and the plates are then incubated at 37° C. for 24 hr. After the incubation period, the plates are gently agitated before OD580 values are collected. The OD580 values at T0 are subtracted from T24 values to determine the total amount of growth (or lack thereof) that occurs. These values are used to calculate the percent inhibition of growth caused by the presence of each biocide and each of the 64 combinations. A 90% inhibition of growth is used as a threshold for calculating synergy index (SI) values with the following equation: Synergy Index=MDBMAL/CDBMAL+MB/CB
where • CDBMAL: Concentration of DBMAL required to inhibit ˜90% of bacterial growth when used alone • CB: Concentration of biocide (B) required to inhibit ˜90% of bacterial growth when used alone. • MDBMAL: Concentration of DBMAL required to inhibit ˜90% of bacterial growth when used in combination with biocide (B). • MB: Concentration of biocide (B) required to inhibit ˜90% of bacterial growth when used in combination with DBMAL The SI values are interpreted as follows: • SI<1: Synergistic combination • SI=1: Additive combination • SI>1: Antagonistic combination
In the Examples below, the amounts of biocides in the solution are measured in mg per liter of solution (mg/l). Since solution densities are approximately 1.00, the mg/l measurement corresponds to weight ppm. Both units may therefore be used interchangeably in the Examples.

Several values for one entry are separate records, joined by “and”; a condition that tells them apart may be missing. Equal values may be shown once.

Broadly, the % Inhibition of growth is the share of the control response that was lost under treatment. `CC1(C)C(=O)N(Cl)C(=O)N1Br` [BCDMH, bromochlorodimethylhydantoin]: the “% Inhibition of growth” value is recorded as 0% (single active at 0.19 mg/l); 0% (single active at 0.39 mg/l); 5% (single active at 0.78 mg/l); 0% (single active at 1.56 mg/l); 2% (single active at 3.13 mg/l); 100% (single active at 6.25 mg/l). The “% Inhibition of growth” value is, setting by setting: (single active at 12.5 mg/l) 98%; (single active at 25.0 mg/l) 99%.

Take `[O][Cl+][O-]` [ClO2, chlorine dioxide]: the “% Inhibition of growth” value runs as follows: (single active at 0.19 mg/l) 12%; (single active at 0.39 mg/l) 26%; (single active at 0.78 mg/l) 35%; (single active at 1.56 mg/l) 63%; (single active at 3.13 mg/l) 75%; (single active at 6.25 mg/l) 99%. The “% Inhibition of growth” value (single active at 12.5 mg/l) came to 100% and the “% Inhibition of growth” value (single active at 25.0 mg/l) came to 98%.

Broadly, the inhibition is the drop in the measured response relative to a control, in per cent. As for `NC(=O)C(Br)(Br)C(N)=O` [DBMAL, 2,2-dibromomalonamide], the I90 value is 12.5 mg/L. Under “single active at 12.5 mg/l”, the inhibition at 12.5 µg/mL amounted to 100%; the “% Inhibition of growth” value was 99% and 92%. Moreover, under “single active at 25.0 mg/l”, the inhibition at 25 µg/mL amounted to 98%. Where the note is “single active at 0.39 mg/l”, the “% Inhibition of growth” value is 4% and 0% and 5% and 8% and 2%. For the same compound, for the setting “single active at 6.25 mg/l”, the “% Inhibition of growth” value is recorded as 9%.

Consider `O=c1nc([O-])n(Cl)c(=O)n1Cl.[Na+]` [DCI, dichloroisocyanurate], for which the “% Inhibition of growth” value runs as follows: (single active at 0.19 mg/l) 0%; (single active at 0.39 mg/l) 0%; (single active at 0.78 mg/l) 0%; (single active at 1.56 mg/l) 98%; (single active at 3.13 mg/l) 100%; (single active at 6.25 mg/l) 97%. The “% Inhibition of growth” value reads like this: (single active at 12.5 mg/l) 100%; (single active at 25.0 mg/l) 100%.

Regarding `OO` [H2O2, hydrogen peroxide], the inhibition at 7.81 µg/mL (single active at 7.81 mg/l) came out at 5%. The inhibition at 15.63 µg/mL (single active at 15.63 mg/l) came out at 2%. Besides, the inhibition at 31.25 µg/mL (single active at 31.25 mg/l) amounted to 0%. The inhibition at 62.5 µg/mL (single active at 62.5 mg/l) is 12%. Besides, for the setting “single active at 125 mg/l”, the inhibition at 125 µg/mL came out at 6%. Where the note is “single active at 250 mg/l”, the inhibition at 250 µg/mL was determined as 1%. Moreover, under “single active at 500 mg/l”, the inhibition at 500 µg/mL turned out to be 100%. The inhibition at 1000 µg/mL (single active at 1,000 mg/l) worked out at 89%.

On to `OBr` [HOBr, hypobromous acid], for which the “% Inhibition of growth” value is reported as 0% (single active at 0.19 mg/l); 0% (single active at 0.39 mg/l); 0% (single active at 0.78 mg/l); 0% (single active at 1.56 mg/l); 22% (single active at 3.13 mg/l); 57% (single active at 6.25 mg/l). Further, the “% Inhibition of growth” value reads like this: (single active at 12.5 mg/l) 99%; (single active at 25.0 mg/l) 100%.

For the compound `NCl` [NH2Cl, monochloramine], the I90 value amounted to 1.56 mg/L. For the same compound, the “% Inhibition of growth” value (single active at 0.19 mg/l) is listed as 4%. In addition, under “single active at 0.39 mg/l”, the “% Inhibition of growth” value is recorded as 0%. For the same compound, the “% Inhibition of growth” value (single active at 0.78 mg/l) was determined as 2%. The “% Inhibition of growth” value (single active at 1.56 mg/l) was 97%. Further, the “% Inhibition of growth” value (single active at 3.13 mg/l) worked out at 96%. Moreover, the “% Inhibition of growth” value (single active at 6.25 mg/l) is given as 94%. Also, the “% Inhibition of growth” value (single active at 12.5 mg/l) is 97%. Besides, where the note is “single active at 25.0 mg/l”, the “% Inhibition of growth” value is reported as 95%.

`O=c1n(Cl)c(=O)n(Cl)c(=O)n1Cl` [TCI, trichloroisocyanurate]: the “% Inhibition of growth” value (single active at 0.19 mg/l) turned out to be 0%; the “% Inhibition of growth” value (single active at 0.39 mg/l) was 0%; the “% Inhibition of growth” value (single active at 0.78 mg/l) turned out to be 0%; the “% Inhibition of growth” value (single active at 1.56 mg/l) was 97%; the “% Inhibition of growth” value (single active at 3.13 mg/l) was 96%; the “% Inhibition of growth” value (single active at 6.25 mg/l) is 99%. In addition, the “% Inhibition of growth” value is, setting by setting: (single active at 12.5 mg/l) 97%; (single active at 25.0 mg/l) 94%.
